Reference: patent publication US20210115087A1, “CYCLIC PEPTIDE INHIBITORS OF HEDGEHOG PROTEINS” (University of Rochester, priority 2016, published 2021)
*1 amine or outer side, *2 acyl side, *3 side chain or, on linkers, in order; H or OH if unused. Where a SMILES comes first, the peptide text is derived from it. Bridges are numbered along the chain shown (N, C = ends). CH2CH2 = C(C[*:2])[*:1]

Key:
[1] = test system: Shh-mediated Hedgehog pathway signaling in NIH3T3 cells; experiment: Gli-reporter dual luciferase assay in Shh-N-stimulated NIH-3T3 cells; type: cell-based, mouse; settings: 4 nM Shh-N, 24 hours; read-out: half-maximal inhibitory concentration (IC50), suppression of luminescence signal
Excerpt: The ability of the compounds provided herein to inhibit ligand-induced activation of the Hedgehog pathway in a cell can be assessed by means of a cell based assay. In an exemplary procedure, a suitable reporter plasmid is introduced in a Hedgehog responsive mammalian cell. Typically, the reporter plasmid contains a reporter gene encoding (e.g., a gene encoding for firefly luciferase) under a Gli-controlled promoter, thereby providing a reporter gene that is responsive to the activity of the Gli transcription factors. […] The reporter cells are incubated with the Hedgehog protein in the presence and in the absence of the cyclic peptide. The extent of Hedgehog pathway suppression can be determined based on relative activity of the luciferase reporter enzyme, which in turn can be determined by measuring the luminescence signal after addition of a luminogenic substrate of the luciferase enzyme.
To this end, we utilized a cell-based luciferase reporter assay, (Chen, Taipale et al. 2002) in which mouse embryo fibroblasts (NIH3T3) are transfected with vectors encoding for a Firefly luciferase (FF) gene under a Gli-controlled promoter and a Renilla luciferase (Ren) gene under a constitutive promoter. Hedgehog pathway suppression is measured based on the decrease in Firefly/Renilla luminescence ratio in the presence of the inhibitor. […] (Chen, Taipale et al. 2002)
Gli-reporter Assay. NIH-3T3 cells were passaged twice and then plated in 24-well culture dishes at 5×10^5 cells/well in DMEM containing 10% FBS and 1% penicillin/streptomycin. After 24 hours, the cells were transfected (TransIT-2020) with a mixture of a firefly luciferase reporter construct under the control of a Gli1 inducible promoter and a Renilla luciferase reporter construct under a constitutive promoter (40:1) (Cignal GLI Reporter Luciferase Kit, Qiagen). Cells were allowed to reach confluency, at which point the media was changed to Opti-MEM containing 1% FBS and added with 4 nM Shh-N(R&D Systems, Minneapolis, Minn.) in sterile PBS buffer. Synthetic HL2-lin and HL2-m5 were added at the same time at varying concentration (0.01-30 uM), and control cells were prepared by adding vehicle only (1% DMSO). Purmorphamine-treated cells were prepared by adding 5 μM purmorphamine to wells containing 10 μM HL2-m5. After growth for 24 hours at 37° C. in a humidified chamber, the cells were harvested and analyzed for Firefly and Renilla luciferase activity using a Tecan Spark-20 plate reader and a DLR kit (Promega) according to the manufacturer's instructions. Luminescence values were normalized to those of the Shh pathway activated control cells. Mean values and standard deviations were calculated from experiments performed at least in duplicate.

[2] = test system: Hedgehog pathway target genes Gli, Gi2 and Ptch1; experiment: Gene transcription analyses by real-time PCR in Shh-N-stimulated NIH-3T3 cells; type: cell-based, mouse; settings: HL2-m5 at 10 μM
Protocol: The ability of the compounds to suppress a transcriptional response associated with activation of the Hedgehog pathway can be assessed by incubating a Hedgehog responsive mammalian cell with the Hedgehog ligand in the presence and in the absence of the cyclic peptide inhibitor. The messenger RNA (mRNA) is extracted and a DNA the mRNA (cDNA) is produced via reverse transcription. The transcriptional level of canonical Hedgehog target genes such as Gli1 and Ptch1 is then determined via real-time PCR and/or via PCR followed by DNA gel electrophoresis. From the resulting dose-response curves, the activity of the cyclic peptide toward suppressing Hedgehog induced transcriptional activity can be established and quantitatively measured by means of IC50 values.
To further validate HL2-m5 as a Hedgehog pathway antagonist, the effect of this compound on the transcriptional activity of two canonical target genes of the pathway, Gi and Ptch1 (FIG. 1) was examined via real-time PCR. […]
Gene transcription analyses. […] The relative amounts of Gi, Gi2, and Ptch1 mRNA transcripts were determined by real-time PCR (Bio-Rad CFX thermocycler) using the primers listed in Table S1 and SYBR green TAQ reagent (Bio-Rad) according to the manufacture's protocol. […] Mean values and standard deviations were calculated from measurements performed in quadruplicate.

[3] = test system: NIH-3T3 cells; experiment: Cell morphology, growth behavior and titer in the presence of the peptide; type: cell-based, mouse; settings: highest concentration range applied
[4] = test system: GST-Shh, GST-Ihh, and GST-Dhh; experiment: Hedgehog analog selectivity: relative binding at fixed peptide concentration; design: species or system human; settings: peptide at fixed concentration of 0.5-1 μM, normalized to highest response
Protocol: FIG. 14. Hh analog selectivity for linear HHIP L2-derived peptide (HL2-pep) and representative cyclic peptide inhibitors. The data relative to the peptides were derived from direct binding experiments with immobilized Hedgehog proteins (i.e., GST-Shh, GST-Ihh, and GST-Dhh), biotinylated peptides (i.e., Biot-HL2-pep, Biot-HL2-m1, Biot-HL2-m2, Biot-HL2-m3, Biot-HL2-m4, Biot-HL2-m4), and HRP-conjugated streptavidin. The data relative to robotnikinin were derived from competition experiments ([…]+400 nM HL2-m5). For each compound, the response values were normalized to the highest binding response measured across the three Hedgehog analogs.
Hedgehog analog selectivity. KD values for FLAG-HL2-m5 binding to Ihh and Dhh were determined using the colorimetric immunoassay described earlier but using GST-Ihh and GST-Dhh-coated plates, respectively. The peptide relative binding affinity for the three isoforms of Hedgehog was determined using the same assay and peptide solutions at a fixed concentration of 0.5-1 μM. In this case, binding responses were subtracted against the blank (no peptide sample) and normalized to the highest value measured across the three Hh isoforms. Mean values and standard deviations were calculated from experiments performed at least in triplicate.

[5] = biological target: T1, GST-Shh (Homo sapiens, UniProt Q15465); experiment: Competition assay: inhibition of FLAG-HL2-m5 binding to GST-Shh; settings: 10 μM robotnikinin and 400 nM FLAG-HL2-m5; read-out: % inhibition of FLAG-HL2-m5 binding in the presence of GST-Shh
T1 construct: poly-histidine (N); made in house; host or cells: E. coli BL21(DE3), vector pET42b
Protocol: (§1) The immunoassay described above can be adapted to serve as a competition assay. In this case, a fixed amount of the labeled peptide is incubated with the immobilized Hedgehog protein in the presence of a test compound (e.g., another cyclic peptide or a small-molecule compound). The test molecule competes with the cyclic peptide for binding to the immobilized Hedgehog protein. The amount of bound peptide is quantified using the colorimetric assay described above and the extent of inhibition in the presence of the test compound is compared to that in the absence of it. From the resulting dose-response curves, a IC50 value for the test compound can be obtained. Using this assay and the cyclic compounds provided herein, the Hedgehog inhibitory activity of a test molecule can be evaluated. […]
(§2) While Shh is the most abundant isoform among Hedgehog proteins, paracrine/autocrine Hedgehog signaling in normal and cancer cells is also mediated by the Indian (Ihh) and Desert (Dhh) isoforms. […] Since the Hh isoform selectivity of robotnikinin had not previously investigated, this property was examined by means of a competition assay, whereby inhibition of FLAG-HL2-m5 binding to plate-immobilized GST-Shh, GST-Ihh, or GST-Dhh is measured via the HRP-conjugated anti-FLAG antibody.
(§3) Competition assay. […] Mean values and standard deviations were calculated from experiments performed in triplicate.

[6] = biological target: T2, GST-Ihh (Homo sapiens, UniProt Q14623); experiment: Competition assay: inhibition of FLAG-HL2-m5 binding to GST-Ihh; settings: 10 μM robotnikinin and 400 nM FLAG-HL2-m5
T2 construct: poly-histidine (N); made in house; host or cells: E. coli BL21(DE3), vector pET42b
Protocol: as §1, §2, §3

[7] = biological target: T3, GST-Dhh (Homo sapiens, UniProt O43323); experiment: Competition assay: inhibition of FLAG-HL2-m5 binding to GST-Dhh; settings: 10 μM robotnikinin and 400 nM FLAG-HL2-m5
T3 construct: poly-histidine (N); made in house; host or cells: E. coli BL21(DE3), vector pET42b
Protocol: as §1, §2, §3

[8] = test system: Hedgehog pathway activation in cells; settings: similar cell-based assay; read-out: IC50, blocking Hedgehog pathway activation in cells; cited from earlier work

T1 sequence (Q15465 24-462): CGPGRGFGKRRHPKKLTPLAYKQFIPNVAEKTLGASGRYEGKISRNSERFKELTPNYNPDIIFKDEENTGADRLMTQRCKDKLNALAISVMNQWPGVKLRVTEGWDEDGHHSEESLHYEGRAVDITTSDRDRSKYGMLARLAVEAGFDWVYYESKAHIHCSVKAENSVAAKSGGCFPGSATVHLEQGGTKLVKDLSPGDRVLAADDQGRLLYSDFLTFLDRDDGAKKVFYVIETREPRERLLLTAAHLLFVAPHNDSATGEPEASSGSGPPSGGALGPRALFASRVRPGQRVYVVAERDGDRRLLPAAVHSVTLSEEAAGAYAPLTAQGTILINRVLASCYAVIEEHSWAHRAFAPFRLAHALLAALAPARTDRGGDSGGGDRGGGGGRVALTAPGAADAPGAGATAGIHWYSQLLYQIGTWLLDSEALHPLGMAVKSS
T2 sequence (Q14623 28-411): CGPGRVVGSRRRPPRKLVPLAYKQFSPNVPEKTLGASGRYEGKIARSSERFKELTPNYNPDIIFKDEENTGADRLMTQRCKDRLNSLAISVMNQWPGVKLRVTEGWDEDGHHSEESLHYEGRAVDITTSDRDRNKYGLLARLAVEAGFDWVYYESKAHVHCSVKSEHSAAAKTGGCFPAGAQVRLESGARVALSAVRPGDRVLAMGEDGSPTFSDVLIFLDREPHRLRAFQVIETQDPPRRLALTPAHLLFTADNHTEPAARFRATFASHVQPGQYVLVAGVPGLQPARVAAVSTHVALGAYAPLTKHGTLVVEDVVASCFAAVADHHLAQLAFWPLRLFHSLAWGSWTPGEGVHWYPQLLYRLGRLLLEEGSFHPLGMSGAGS

Question: Which results are given for `CSCC[C@@H]1NC(=O)[C@H](C)NC(=O)[C@H](CCC(=O)O)NC(=O)[C@@H](NC(=O)[C@H](Cc2c[nH]c3ccccc23)NC(=O)[C@H](CO)NC(=O)[C@H](CC(C)C)NC(=O)[C@@H](NC(C)=O)[C@@H](C)O)Cc2ccc(cc2)OCCSC[C@@H](C(=O)N[C@H](C(=O)N[C@@H](CC(=O)O)C(N)=O)[C@@H](C)O)NC(=O)[C@H](CCSC)NC(=O)[C@H](CC(=O)O)NC1=O` [HL2-m5] (Ac-TLSWYEAMDMCTD-NH2; linker 5-11 via CH2CH2)?
Answer: IC50 [1]: 0.25 µM; mRNA level for the transcription factor Gli2 ([2]; ShhN-stimulated cells): suppresses; reduction of the mRNA levels of Gi and Ptch1 ([2]; relative to compound-untreated ShhN-stimulated cells): 75-85%; cytotoxicity (cell morphology, growth behavior and titer) [3]: lack of cytotoxicity; Hedgehog analog selectivity profile [4]: nearly identical activity toward Shh and Ihh

Question: With `O=C(C[C@@H]1C/C=C/CCC(=O)O[C@H](c2ccccc2)CNC1=O)NCc1ccc(Cl)cc1` [robotnikinin] as the compound, how does the inhibition at 10 µM [5] read?
Answer: 34%

Question: What about the “affinity toward Ihh relative to Shh” value [6] of the same compound?
Answer: significantly lower affinity

Question: And the “affinity toward Dhh relative to Shh” value [7]?
Answer: significantly lower affinity

Question: What about the IC50 [8] of the same compound?
Answer: ~15 µM
